Measurements from ChEMBL document CHEMBL6134780, “Halogenated retinoid derivatives as dual RARα and RXRα modulators for treating acute promyelocytic leukemia cells” (Eur J Med Chem, 2024).
The source made the active and inactive calls. No cut-off for these calls is given here.

Legend:
NB-4 [1] = assay: Cell cycle arrest in human NB4 cells assessed as accumulation of cells at G2/M phase at 1 uM incubated for 12 hrs by DAPI staining based flow cytometric analysis (reference value: 26 %); type: functional
NB-4 [2] = assay: Cell cycle arrest in human NB4 cells assessed as accumulation of cells at S phase at 1 uM incubated for 12 hrs by DAPI staining based flow cytometric analysis (reference value: 20 %); type: functional
[3] = Cell cycle arrest in human ATRA-resistant NB4-LR2 cells assessed as accumulation of cells at S phase at 1 uM incubated for 12 hrs by DAPI staining based flow cytometric analysis (reference value: 12 %); type: functional
[4] = Cell cycle arrest in human ATRA-resistant NB4-LR2 cells assessed as accumulation of cells at sub-G1 phase at 1 uM incubated for 12 hrs by DAPI staining based flow cytometric analysis (reference value: 18 %); type: functional
NB-4 [5] = assay: Induction of cell differentiation in human NB4 cells assessed as NBT positive cells at 0.5 uM incubated for 6 days by Nitro Blue tetrazolium chloride based microscopic analysis (reference value: 0 %); type: functional; settings: time 6 day
[6] = Cell cycle arrest in human ATRA-resistant NB4-LR2 cells assessed as accumulation of cells at G2/M phase at 1 uM incubated for 12 hrs by DAPI staining based flow cytometric analysis (reference value: 28 %); type: functional
NB-4 [7] = assay: Cell cycle arrest in human NB4 cells assessed as accumulation of cells at G0/G1 phase at 1 uM incubated for 12 hrs by DAPI staining based flow cytometric analysis (reference value: 51 %); type: functional
[8] = molecular target: T1, Retinoic acid receptor alpha (Homo sapiens) (UniProt P10276); assay: Agonist activity at full length RARalpha LBD (unknown origin) transfected in HEK293T cells co-transfected with pG5luc reporter and Renilla-luc assessed as transactivation at 0.5 to 1 uM incubated for 12 hrs by luciferase reporter gene assay; type: cell-based; settings: filed as agonist, dose 0.5-1 µM
T1 sequence (whole entry): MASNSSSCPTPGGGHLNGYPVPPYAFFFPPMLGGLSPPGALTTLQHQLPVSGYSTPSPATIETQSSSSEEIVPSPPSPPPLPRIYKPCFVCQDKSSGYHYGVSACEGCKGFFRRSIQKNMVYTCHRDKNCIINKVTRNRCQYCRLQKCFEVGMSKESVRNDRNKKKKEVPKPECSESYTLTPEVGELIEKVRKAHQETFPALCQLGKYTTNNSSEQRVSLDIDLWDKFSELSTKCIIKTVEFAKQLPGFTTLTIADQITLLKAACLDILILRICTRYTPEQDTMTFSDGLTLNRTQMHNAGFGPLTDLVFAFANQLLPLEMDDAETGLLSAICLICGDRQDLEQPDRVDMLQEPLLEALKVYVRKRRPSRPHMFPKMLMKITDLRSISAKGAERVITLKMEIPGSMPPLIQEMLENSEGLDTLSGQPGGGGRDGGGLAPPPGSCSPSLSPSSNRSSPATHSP

NB-4 [9] = assay: Cell cycle arrest in human NB4 cells assessed as accumulation of cells at sub-G1 phase at 1 uM incubated for 12 hrs by DAPI staining based flow cytometric analysis (reference value: 2 %); type: functional
[10] = Induction of apoptosis in human ATRA-resistant NB4-LR2 cells assessed as late apoptotic cells at 1 uM incubated for 24 hrs by Annexin V-FITC/PI staining based flow cytometric analysis (reference value: 5.62 %); type: functional
NB-4 [11] = assay: Induction of apoptosis in human NB4 cells assessed as early apoptotic cells at 1 uM incubated for 24 hrs by Annexin V-FITC/PI staining based flow cytometric analysis (reference value: 1.77 %); type: functional
NB-4 [12] = assay: Antiproliferative activity against human NB4 cells assessed as inhibition of cell viability at 0.125 uM incubated for 3 days by CCK8 assay relative to control; type: functional; settings: NB-4, 72 h, time 3 day
[13] = Induction of apoptosis in human ATRA-resistant NB4-LR2 cells assessed as early apoptotic cells at 1 uM incubated for 24 hrs by Annexin V-FITC/PI staining based flow cytometric analysis (reference value: 1.41 %); type: functional
[14] = Cell cycle arrest in human ATRA-resistant NB4-LR2 cells assessed as accumulation of cells at G0/G1 phase at 1 uM incubated for 12 hrs by DAPI staining based flow cytometric analysis (reference value: 42 %); type: functional
NB-4 [15] = assay: Induction of apoptosis in human NB4 cells assessed as late apoptotic cells at 1 uM incubated for 24 hrs by Annexin V-FITC/PI staining based flow cytometric analysis (reference value: 2.23 %); type: functional
[16] = molecular target: T2, Retinoic acid receptor beta (Homo sapiens) (UniProt P10826); assay: Agonist activity at full length RARbeta LBD (unknown origin) transfected in HEK293T cells co-transfected with pG5luc reporter and Renilla-luc at 1 uM incubated for 12 hrs by luciferase reporter gene assay; type: cell-based; settings: filed as agonist
T2 sequence (whole entry): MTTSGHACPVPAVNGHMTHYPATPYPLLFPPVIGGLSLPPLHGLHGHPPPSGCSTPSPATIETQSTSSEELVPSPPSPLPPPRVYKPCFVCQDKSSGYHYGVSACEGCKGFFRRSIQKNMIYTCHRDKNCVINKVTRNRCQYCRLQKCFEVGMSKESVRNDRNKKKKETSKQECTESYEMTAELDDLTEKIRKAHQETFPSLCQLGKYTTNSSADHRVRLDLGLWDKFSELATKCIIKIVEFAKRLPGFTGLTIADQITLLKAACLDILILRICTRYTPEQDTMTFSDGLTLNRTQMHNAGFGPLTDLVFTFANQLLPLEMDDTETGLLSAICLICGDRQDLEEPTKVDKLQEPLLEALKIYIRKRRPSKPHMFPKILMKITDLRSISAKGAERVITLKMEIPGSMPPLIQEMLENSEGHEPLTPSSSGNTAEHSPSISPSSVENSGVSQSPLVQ

[17] = molecular target: T1, Retinoic acid receptor alpha (Homo sapiens); assay: Agonist activity at full length RARalpha LBD (unknown origin) transfected in HEK293T cells co-transfected with pG5luc reporter and Renilla-luc at 1 uM incubated for 12 hrs by luciferase reporter gene assay; type: cell-based; settings: filed as agonist
[18] = molecular target: T3, Retinoic acid receptor gamma (Homo sapiens) (UniProt P13631); assay: Agonist activity at full length RARgamma LBD (unknown origin) transfected in HEK293T cells co-transfected with pG5luc reporter and Renilla-luc at 1 uM incubated for 12 hrs by luciferase reporter gene assay; type: cell-based; settings: filed as agonist
T3 sequence (whole entry): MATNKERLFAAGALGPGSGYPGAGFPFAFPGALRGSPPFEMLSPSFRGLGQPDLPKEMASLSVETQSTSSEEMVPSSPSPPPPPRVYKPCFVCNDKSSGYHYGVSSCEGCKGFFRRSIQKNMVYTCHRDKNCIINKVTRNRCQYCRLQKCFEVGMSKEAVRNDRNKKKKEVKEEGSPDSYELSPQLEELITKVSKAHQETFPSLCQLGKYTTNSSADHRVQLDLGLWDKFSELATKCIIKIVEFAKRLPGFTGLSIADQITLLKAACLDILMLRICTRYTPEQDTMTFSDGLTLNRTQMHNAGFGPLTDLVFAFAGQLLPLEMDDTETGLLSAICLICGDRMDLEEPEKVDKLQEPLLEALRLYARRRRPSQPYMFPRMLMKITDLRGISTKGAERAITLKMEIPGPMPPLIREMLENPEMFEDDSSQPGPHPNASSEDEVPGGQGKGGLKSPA

Activity [17]	Compound	Activity (NB-4 [1])	Activity (NB-4 [2])	Activity [3]	Activity [4]	Activity (NB-4 [5])	Activity [6]	Activity (NB-4 [7])	Activity [8]	Activity (NB-4 [9])	Activity [10]	Activity (NB-4 [11])	inhibition at 0.125 µM (NB-4 [12])	Activity [13]	Activity [14]	Activity (NB-4 [15])	Activity [16]	Activity [18]
	Cc1cc2c(cc1C(=O)/C(I)=C/c1ccc(C(=O)O)cc1)C(C)(C)CCC2(C)C	24%	11%	9%	20%	78%	30%	63%	Active; Highly Raralpha Selective Agonistic Activity Observed	2%	6.66%	0.58%	~40%	1.1%	41%	4.24%		
Active	Cc1cc2c(cc1C(=O)/C=C/c1ccc(C(=O)O)cc1)C(C)(C)CCC2(C)C																Active; Poor Subtype Selectivity Observed	Active; Poor Subtype Selectivity Observed
	Cc1cc2c(cc1C(=O)/C(I)=C\c1ccc(C(=O)O)cc1)C(C)(C)CCC2(C)C								Active									
